Source: the OligoGym collection
Values joined by “and” are separate entries in the source; they are usually repeats but may differ in a detail not shown here. Equal values may be shown once. After the bases stand the sugars from the 5' end (letter, count) and the backbone: PS all phosphorothioate, else s phosphorothioate and o phosphodiester by linkage. Methylation of C is not given here. e = 2'-O-(2-methoxyethyl) (MOE); k = constrained ethyl (cEt); d = 2'-deoxy (DNA)

Target: SOD1
Conditions: ASO

AATCTTCCAAGTGATCA (sugars e3 k2 d7 k2 e3, PS)
target mRNA inhibition (HepG2, 3 µM): 23%

CTCATAATAAGTGCCAT (sugars e2 k2 d8 k2 e3, PS)
target mRNA inhibition (HepG2, 5 µM): 30%

CAGCTAGCAGGATAACA (sugars e2 k2 d9 k2 e2, PS)
target mRNA inhibition (HepG2, 4 µM): 61%

TGTTTAATGTTTATCAGG (sugars e5 d8 e5, linkages s1 o3 s9 o2 s2)
target mRNA inhibition (A431, 0.12 µM): 6%
target mRNA inhibition (A431, 0.6 µM): 26%
target mRNA inhibition (A431, 3 µM): 29%
target mRNA inhibition (A431, 15 µM): 33%
target mRNA inhibition (HepG2, 0.222 µM): 14%
target mRNA inhibition (HepG2, 0.667 µM): 39%
target mRNA inhibition (HepG2, 2 µM): 59%
target mRNA inhibition (HepG2, 6 µM): 77%

ATTTCTACAGCTAGCAG (sugars e3 k2 d7 k2 e3, PS)
target mRNA inhibition (HepG2, 3 µM): 45%

AACATGGAATCCATGCA (sugars e3 k2 d7 k2 e3, PS)
target mRNA inhibition (HepG2, 3 µM): 10%

AATACCCATCTGTGATT (sugars e3 k2 d7 k2 e3, PS)
target mRNA inhibition (HepG2, 3 µM): 7%

TCCTGGTTCCGAGGACTGCA (sugars e5 d10 e5, PS)
target mRNA inhibition (HepG2, 4 µM): 24%

AGACTACATCCAAGGGA (sugars e3 k2 d7 k2 e3, PS)
target mRNA inhibition (HepG2, 3 µM): 39%

ACATCCAAGGGAATGTT (sugars e3 k2 d7 k2 e3, PS)
target mRNA inhibition (HepG2, 3 µM): 30%

CGACTACTTTATAGGCC (sugars e3 k2 d7 k2 e3, PS)
target mRNA inhibition (HepG2, 3 µM): 12%

AGGATAACAGATGAGTT (sugars e2 k2 d9 k2 e2, PS)
target mRNA inhibition (HepG2, 0.1875 µM): 32%
target mRNA inhibition (HepG2, 0.75 µM): 62%
target mRNA inhibition (HepG2, 3 µM): 89%
target mRNA inhibition (HepG2, 4 µM): 86%
target mRNA inhibition (HepG2, 12 µM): 98%

GCTAGCAGGATAACAGA (sugars e3 k2 d7 k2 e3, PS)
target mRNA inhibition (HepG2, 3 µM): 10%

ATGATGCCCTGCACTGGGCC (sugars e5 d10 e5, PS)
target mRNA inhibition (HepG2, 4 µM): 20%

TGTCAGCAGTCACATTGCCC (sugars e5 d10 e5, PS)
target mRNA inhibition (HepG2, 5 µM): 55% and 49%

CACAGGCTTGAATGACA (sugars e2 k2 d8 k2 e3, PS)
target mRNA inhibition (HepG2, 5 µM): 34%

GTCTCCTGAGAGTGAGATCA (sugars e5 d10 e5, PS)
target mRNA inhibition (HepG2, 5 µM): 23%

TTAAGATTACAGTGTTT (sugars e3 k2 d7 k2 e3, PS)
target mRNA inhibition (HepG2, 3 µM): 54%

GCCTCATAATAAGTGCC (sugars e2 k2 d9 k2 e2, PS)
target mRNA inhibition (HepG2, 5 µM): 33%

ATCAGTTTCTCACTACA (sugars e2 k2 d9 k2 e2, PS)
target mRNA inhibition (HepG2, 5 µM): 44%

TTCACTGGTCCATTACT (sugars e3 k2 d7 k2 e3, PS)
target mRNA inhibition (HepG2, 3 µM): 14%

ACACCACAAGCCAAACG (sugars e2 k2 d9 k2 e2, PS)
target mRNA inhibition (HepG2, 4 µM): 45%

GTGCCATACAGGGTTTT (sugars e2 k2 d8 k2 e3, PS)
target mRNA inhibition (HepG2, 5 µM): 20%

GCCTCAGACTACATCCA (sugars e2 k2 d8 k2 e3, PS)
target mRNA inhibition (HepG2, 4 µM): 69%

CTGGCAAAATACAGGTC (sugars e2 k2 d8 k2 e3, PS)
target mRNA inhibition (HepG2, 5 µM): 25%

TTTGTCAGCAGTCACATTGC (sugars e5 d10 e5, PS)
target mRNA inhibition (HepG2, 5 µM): 26% and 16%

TTTGGATTCTTTTAATAGCC (sugars e5 d10 e5, PS)
target mRNA inhibition (HepG2, 5 µM): 14%

TAATAAGTGCCATACAG (sugars e2 k2 d9 k2 e2, PS)
target mRNA inhibition (HepG2, 5 µM): 30%

CCGAGGACTGCAACGGAAAC (sugars e5 d10 e5, PS)
target mRNA inhibition (HepG2, 4 µM): 29%

CCCATCTGTGATTTAAG (sugars e2 k2 d8 k2 e3, PS)
target mRNA inhibition (HepG2, 5 µM): 49%

CATCTGTGATTTAAGTCTGG (sugars e5 d10 e5, PS)
target mRNA inhibition (HepG2, 5 µM): 29%

TACAGGTCATTGAAACA (sugars e2 k2 d9 k2 e2, PS)
target mRNA inhibition (HepG2, 5 µM): 38%

CGATCCCAATTACACCA (sugars e3 k2 d7 k2 e3, PS)
target mRNA inhibition (HepG2, 3 µM): 12%

GGATACATTTCTACAGC (sugars e2 k2 d9 k2 e2, PS)
target mRNA inhibition (HepG2, 0.1875 µM): 44%
target mRNA inhibition (HepG2, 0.75 µM): 67%
target mRNA inhibition (HepG2, 3 µM): 89%
target mRNA inhibition (HepG2, 4 µM): 84%
target mRNA inhibition (HepG2, 12 µM): 94%

CTGTATTATCTCCAAACTCA (sugars e5 d10 e5, PS)
target mRNA inhibition (HepG2, 5 µM): 32% and 28%

CGCCCTTCAGCACGCACACG (sugars e5 d10 e5, PS)
target mRNA inhibition (HepG2, 0.1875 µM): 0%
target mRNA inhibition (HepG2, 0.75 µM): 2%
target mRNA inhibition (HepG2, 3 µM): 28%
target mRNA inhibition (HepG2, 4 µM): 23%
target mRNA inhibition (HepG2, 12 µM): 92%

AATGTTTATCAGGATAC (sugars e2 k2 d8 k2 e3, PS)
target mRNA inhibition (HepG2, 0.1875 µM): 51%
target mRNA inhibition (HepG2, 0.75 µM): 79%
target mRNA inhibition (HepG2, 3 µM): 92%
target mRNA inhibition (HepG2, 4 µM): 89%
target mRNA inhibition (HepG2, 12 µM): 96%

CCTTCTGCTCGAAATTGATG (sugars e5 d10 e5, PS)
target mRNA inhibition (HepG2, 3 µM): 53%

ATAGAGGATTAAAGTGA (sugars e3 k2 d7 k2 e3, PS)
target mRNA inhibition (HepG2, 3 µM): 9%

GTTTAATGTTTATCAGG (sugars e2 k2 d9 k2 e2, linkages s1 o3 s9 o1 s2)
target mRNA inhibition (A431, 0.12 µM): 25%
target mRNA inhibition (A431, 0.6 µM): 69%
target mRNA inhibition (A431, 3 µM): 89%
target mRNA inhibition (A431, 15 µM): 95%
target mRNA inhibition (HepG2, 0.222 µM): 76%
target mRNA inhibition (HepG2, 0.667 µM): 90%
target mRNA inhibition (HepG2, 2 µM): 94%
target mRNA inhibition (HepG2, 6 µM): 93%

GGTCATTGAAACAGACA (sugars e3 k2 d7 k2 e3, PS)
target mRNA inhibition (HepG2, 3 µM): 11%

TAATACCCATCTGTGAT (sugars e3 k2 d7 k2 e3, PS)
target mRNA inhibition (HepG2, 3 µM): 4%

CAGCTAGCAGGATAACA (sugars e2 k2 d8 k2 e3, PS)
target mRNA inhibition (HepG2, 4 µM): 71%
